Data published in patent US20250312469A1 (CANGET BIOTEKPHARMA, priority 2024, published 2025).

Assays:
[1] = in vitro; settings: for microsomal CLint at 0.5 μM / half-life at 0.5 μM: both; for microsomal CLint at 0.5 μM: s9, CLint (intrinsic clearance); for microsomal CLint at 0.5 μM / half-life at 0.5 μM / % Remaining of Initial (n = 1): human liver S9 fraction; for half-life at 0.5 μM: s9, Half-life (min)
[2] = system: CRPC LAPC9 tumors; experiment: LAPC9 CRPC tumor model; type: in vivo, SCID mice; settings: 8 mg/kg orally once per week, 2 times
[3] = system: p53, Mdm2, AR, AR-Vs, c-Myc, MdmX; experiment: Western blot/RT-PCR of p53, Mdm2, AR, AR-Vs, c-Myc, MdmX in PCa cells; type: cell-based, human
[4] = system: Panc-1 and BxPC-3 cells; experiment: Cell attachment after FL118 pretreatment; type: cell-based, human; settings: 24 h pretreatment, reseeded
Method: The harvested cells were then reseeded at an expected 30-60% confluence if all cell attached to the cell cultural dish. […] Representative cell attachment images were taken 4-16 hours dependent on control cell attachment speed after cell seeding. Quantitative analysis of non-attached cell numbers was documented in parallel for each condition.

[5] = Hepatocyte stability; settings: for hepatocyte CLint at 0.5 μM / half-life at 0.5 μM: both, human, hepatocytes; for hepatocyte CLint at 0.5 μM: pH 7.4, Clint (intrinsic clearance); for hepatocyte CLint at 0.5 μM / half-life at 0.5 μM / % Remaining: cryopreserved human hepatocytes; for half-life at 0.5 μM: pH 7.4, Half-life
[6] = Plasma stability; type: in vitro ADME, human
Method: Both matrices were adjusted to pH 7.4 prior to initiating the experiments. A DMSO stock as first prepared for the test article. […] The vials were kept in a benchtop Thermomixer for the duration of the experiment. Aliquots (100 μL) were taken at each time point (0, 15, 30, 60, and 120 minutes) and added to 96-well plates which had been pre-filled with 300 μL of acetonitrile (ACN). Samples were stored at 4° C. until the end of the experiment. […] Analytical conditions are outlined in Appendix 1.

In the case of `CCC1(O)C(=O)OCc2c1cc1n(c2=O)Cc2cc3cc4c(cc3nc2-1)OCO4` (stereo not shown) [FL118], the microsomal CLint at 0.5 μM ([1]; human, calculated (in parentheses)) is reported as 11.1 µL/min/mg, the microsomal CLint at 0.5 μM ([1]; human, bound) is reported as < 11.6 µL/min/mg and the half-life at 0.5 μM ([1]; human, calculated (in parentheses), calculated half-life longer than the experiment) is reported as 63 min. For the same molecule, the half-life at 0.5 μM ([1]; human, expressed as > the longest incubation time) was > 60 min, the “% Remaining of Initial (n = 1)” value ([1]; 0 min) was 100% and the “% Remaining of Initial (n = 1)” value ([1]; 10 min) was 82%. For the same molecule, the “% Remaining of Initial (n = 1)” value ([1]; 20 min) was 73%, the “% Remaining of Initial (n = 1)” value ([1]; 30 min) was 69% and the “% Remaining of Initial (n = 1)” value ([1]; 60 min) was 52%. The half-life ([1]; human, s9) was “long half-life”, the antitumor efficacy [2] was “sensitive to FL118” and the “AR mRNA” value [3] was “decrease AR mRNA levels”. The “expression of p53, Mdm2, AR, AR-Vs, MdmX, c-Myc” value [3] was “induces the expression of p53 (p21 increase is a hallmark of p53 activation) and Mdm2 but inhibits AR, AR-Vs, MdmX, and c-Myc”, the cell attachment [4] was “exhibited cell attachment defect” and the half-life ([5]; 0.5 μM) was “long half-life”. For the same molecule, the hepatocyte CLint at 0.5 μM ([5]; calculated (in parentheses)) was 2.96 µL/min/1e6 cells, the hepatocyte CLint at 0.5 μM ([5]; bound) was < 3.85 µL/min/1e6 cells and the half-life at 0.5 μM ([5]; calculated (in parentheses), calculated half-life longer than the experiment) was 156 min. For the same molecule, the half-life at 0.5 μM ([5]; expressed as > the longest incubation time (120 min)) was > 120 min, the “% Remaining” value ([5]; 0 min) was 100% and the “% Remaining” value ([5]; 15 min) was 79%. For the same molecule, the “% Remaining” value ([5]; 30 min) was 71%, the “% Remaining” value ([5]; 60 min) was 66% and the “% Remaining” value ([5]; 120 min) was 58%. The half-life ([6]; 0.5 μM) was “long half-life”, the “Percent Remaining” value ([6]; Human Plasma, 0 min) was 100% and the “Percent Remaining” value ([6]; Human Plasma, 15 min) was 111%. For the same molecule, the “Percent Remaining” value ([6]; Human Plasma, 30 min) was 110%, the “Percent Remaining” value ([6]; Human Plasma, 60 min) was 94% and the “Percent Remaining” value ([6]; Human Plasma, 120 min) was 26%. It also gave a half-life at 0.5 μM ([6]; both sexes, plasma (sodium heparin), pH 7.4, Human Plasma) of 92 min.
